Broadly, the EC50 is the concentration that produces a half-maximal response. One may read the IC50 as the concentration needed to halve the response being measured.

Data set [1] can be described thus: Microsomal stability, human liver microsomes. Type of data set: in vitro ADME. Particulars: both sexes, pH 7.4, 0.5 mg/mL microsomes, NADPH. On the procedure: (§1) Pooled mixed gender human liver microsomes (HLMs) and Pooled CD1 mouse liver microsomes (female) were purchased from Tebubio. The NADPH regenerating system was purchased from Promega. All other reagents and solvents were of special or analytical grade and were commercially available. The assays were performed according to a reported protocol with small changes. […] The reactions were initiated by adding liver microsomes at a final concentration of 0.5 mg/mL in a total volume of 250 μL. […] The supernatants were analyzed with LC/MS for the amount of parent compound remaining, and the CLint and t 1/2 were determined.
(In general: Liver microsomes are vesicles of endoplasmic reticulum, rich in cytochrome P450 enzymes.)

The test system of another data set is T. b. brucei SUR10. Briefly: microbe, parasite or virus in culture. Format: cell-based. As to conditions: Trypanosoma brucei, read-out: SUR10 EC50.
Data set [2] has as its target T1, recombinant TAO (ΔMTS rTAO) (Trypanosoma brucei brucei, UniProt Q26710).
T1 construct: […]; SUMO (Small Ubiquitin-related Modifier) fusion from the expression system; made in house
Briefly: Inhibition of ubiquinol oxidase activity of purified recombinant TAO. Type of data set: biochemical, T. brucei. On the procedure: This physiologically relevant rTAO enzyme was used throughout this work and in this experiment to study the inhibitory activity of 1.
As previously described, the Ubiquinol oxidase activity measurement was carried out using recombinant TAO lacking the mitochondrial targeting signal (ΔMTS). […] The reaction was carried out in a 1 cm cuvette for 2 min using a V-630 Jasco UV–vis spectrophotometer (Jasco Corporation, Tokyo, Japan). Briefly, the procedure involves preincubating 250 ng of the enzyme for 2 min in a 50 mM Tris-HCl (pH 7.3) buffer containing the detergent octaethylene glycol monododecylether (0.05% (w/v)) in a total reaction volume of 1 mL at 25 °C. […] For the inhibition reaction, 250 ng of the enzyme was preincubated with varying inhibitor concentrations for 2 min using the same buffer before the substrate was added. […] This was achieved using the same protocol but without TAO. […] The residual activities were plotted against the corresponding inhibitor concentration in a GraphPad Prism-9 software to obtain the IC50 value.

The test system of the next data set is T. evansi WT. As to the kind of experiment: Resazurin-based drug sensitivity assay, T. evansi WT. Format: cell-based. The procedure: (§2) Other Trypanosoma species used in this study include T. evansi AntTat 3/3 (Wild-type); and T. equiperdum BoTat 1 (Bordeaux trypanozoon antigenic type 1) P (wild-type). All the trypanosomes were used only as bloodstream trypomastigotes and cultured in the standard Hirumi’s Modified Iscove’s medium #9 (HMI-9), supplemented with 10% heat-inactivated Fetal Bovine Serum (FBS), 14 μL/L β-mercaptoethanol, and 3.0 g sodium hydrogen carbonate per liter of medium (pH 7.4). Trypanosomes were cultured in vented flasks at 37 °C in a 5% CO2 atmosphere.
(§3) Briefly, this protocol involves preparing a 96-well cell culture plate with a 100 μL serially diluted test compound (200 μM top concentration) in HMI-9 + 10% FBS (24 wells per control drug or test compound, with the 24th well serving as drug-free). This is followed by adjusting the cell density of mid-log-phase trypanosome cultures to the required concentration of 2 × 10^5 cells/mL (2 × 10^4 cells/well). […] All incubations were carried out at 37 °C with 5% CO2. […] EC50 values were calculated using GraphPad Prism 9.0 software via nonlinear regression with an equation for a sigmoidal dose–response curve with variable slope (GraphPad Software Inc., San Diego, CA, USA).
A general note: Alamar Blue is a resazurin reagent that responds to reducing activity.

The test system of another data set is T. congolense WT. As to the kind of experiment: Drug sensitivity assay, T. congolense WT bloodstream forms. As to conditions: Trypanosoma congolense. Type of data set: cell-based. On the procedure:
The susceptibilities of trypanosomes to compound 1 were determined as previously described using the resazurin (Alamar Blue) assay. Briefly, this protocol involves preparing a 96-well cell culture plate with a 100 μL serially diluted test compound (200 μM top concentration) in HMI-9 + 10% FBS (24 wells per control drug or test compound, with the 24th well serving as drug-free). This is followed by adjusting the cell density of mid-log-phase trypanosome cultures to the required concentration of 2 × 10^5 cells/mL (2 × 10^4 cells/well). Then, 100 μL of the adjusted cell density/culture was added to all 24 wells in the plate, then incubating trypanosomes and test compound for 48 h followed by the addition of 20 μL filter-sterilized resazurin solution prepared by adding 25 mg resazurin sodium salt to 200 mL filter-sterilized PBS. This was followed by a further 24 h of incubation. All incubations were carried out at 37 °C with 5% CO2. […] Fluorescence was measured in the 96-well plates with a FLUOstar Optima (BMG Labtech, Durham, NC, USA) at wavelengths of 544 nm for excitation, 590 for emission, and a gain of 1250. EC50 values were calculated using GraphPad Prism 9.0 software via nonlinear regression with an equation for a sigmoidal dose–response curve with variable slope (GraphPad Software Inc., San Diego, CA, USA).

The subject of a further data set is T. brucei B48. Briefly: microbe, parasite or virus in culture. Format: cell-based, T. b. brucei. Particulars: Trypanosoma brucei, read-out: T. brucei B48 EC50. The procedure: as §2, §3
A further data set concerns T. brucei aqp1-3 null. As to the kind of experiment: microbe, parasite or virus in culture. As to conditions: Trypanosoma brucei, read-out: aqp1-3 null EC50. Format: cell-based, T. b. brucei. The procedure: as §2, §3
For data set [3], the system named is T. b. brucei WT (s427) trypomastigotes. As to the kind of experiment: microbe, parasite or virus in culture. Format: cell-based. As to conditions: Trypanosoma brucei. On the procedure: as §2, §3
For the next data set, the system named is T. b. brucei STIB795/luc. As to the kind of experiment: In vivo STIB795 mouse model of T. b. brucei infection. Particulars: 5 mg/kg/day i.p. for 4 days.
A short description of data set [4]: Microsomal stability, mouse liver microsomes. Format: in vitro ADME. Particulars: female, CD1, mouse, pH 7.4, 0.5 mg/mL microsomes, NADPH. The procedure:
as §1

Read-outs that look alike come from different tables or passages of the source.

T1 sequence (Q26710 26-329, stated change not applied): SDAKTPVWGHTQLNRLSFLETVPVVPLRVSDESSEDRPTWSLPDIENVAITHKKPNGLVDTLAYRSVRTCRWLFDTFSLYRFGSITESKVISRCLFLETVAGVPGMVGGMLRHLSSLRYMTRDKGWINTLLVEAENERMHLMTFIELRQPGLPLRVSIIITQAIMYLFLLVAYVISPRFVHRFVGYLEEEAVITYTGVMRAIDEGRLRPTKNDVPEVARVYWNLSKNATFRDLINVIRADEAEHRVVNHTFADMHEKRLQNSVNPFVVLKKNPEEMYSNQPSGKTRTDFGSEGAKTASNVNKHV

As for `Cc1cc(O)ccc1C(=O)OCCCCCCCCCCCCCC[P+](c1ccccc1)(c1ccccc1)c1ccccn1.[Br-]` [Compound 1, {14-[(4-Hydroxy-2-methylbenzoyl)-oxy]-tetradecyl}-diphenyl(pyridin-2-yl)-Phosphonium Bromide], the figures for the microsomal CLint at 1 μM in [1] (read-out: CLint,met in human microsomes) and in data set [4] (read-out: CLint,met in mouse microsomes) were 216 ± 2.3 µL/min/mg and 293 ± 19 µL/min/mg, respectively. Further, the half-life at 1 μM in [1] (read-out: t1/2 in human microsomes) was 6.2 min; in data set [4] (read-out: t1/2 in mouse microsomes), 4.6 min. Also, the EC50 in the data set with T. b. brucei SUR10 came out at 3.6 ± 0.9 nM; with T. evansi WT it was 1.2 ± 0.1 nM; with T. congolense WT, 41 ± 7 nM; in the data set with T. brucei B48, 2.5 ± 0.1 nM; in the data set with T. brucei aqp1-3 null it was 1.2 ± 0.13 nM; in data set [3] (read-out: T. b. brucei WT (+5 mM glycerol) EC50, incubated in the presence of 5 mM glycerol), 1.4 ± 0.5 nM. The EC50 in data set [3] (s427, no glycerol, n ≥ 4, read-out: T. b. brucei WT (no glycerol) EC50) was determined as 3.1 ± 0.6 nM. In [2], the IC50 turned out to be 1.3 ± 0.07 nM. For the same molecule, in the data set with T. b. brucei STIB795/luc, the “In vivo efficacy (extension of lifespan)” value was “no in vivo efficacy”.

(Values after publication PMC12406258, “Uncovering the Unusual Inhibition Mechanism of a Trypanosome Alternative Oxidase Inhibitor Displaying Broad-Spectrum Activity against African Animal Trypanosomes” (Journal of Medicinal Chemistry, 2025).)
